Data reported in BigSolDB 2.1.

N[C@@H](Cc1ccc([N+](=O)[O-])cc1[N+](=O)[O-])C(=O)O
solubility (mole fraction)
Conditions	in 1,2-dichloroethane	in acetone	in ethanol	in ethyl acetate	in isopropanol	in methanol	in n-butanol	in n-propanol	in sec-butanol	in water
273.15 K	2.2e-09	1.58e-06	3.44e-05	–	1.51e-06	1.5e-05	3.84e-06	2.58e-06	6.49e-07	8.5e-08
278.15 K	–	1.64e-06	–	–	2.96e-06	4.12e-05	–	–	–	–
283.15 K	8.6e-09	1.72e-06	9.2e-05	–	5.45e-06	9.1e-05	3.91e-06	3.54e-06	6.79e-07	1.12e-06
288.15 K	–	1.91e-06	–	–	9.49e-06	0.000192	–	–	–	–
293.15 K	3.08e-08	2.15e-06	0.000195	–	1.56e-05	0.000365	3.99e-06	5.64e-06	6.92e-07	9.26e-06
298.15 K	–	2.56e-06	–	–	2.42e-05	0.000578	–	–	–	–
303.15 K	1.05e-07	3.06e-06	0.00035	9.1e-09	3.57e-05	0.000909	4.28e-06	1.01e-05	7.79e-07	5.12e-05
308.15 K	–	3.99e-06	–	–	5.03e-05	0.00123	–	–	–	–
313.15 K	3.27e-07	5.26e-06	0.00051	1.88e-07	6.78e-05	0.00155	5.01e-06	2.04e-05	9.45e-07	0.000189
318.15 K	–	7.14e-06	–	–	8.75e-05	0.00181	–	–	–	–
323.15 K	9.77e-07	1.01e-05	0.000671	1.88e-06	0.000109	0.00196	6.29e-06	4.55e-05	1.23e-06	0.000523
328.15 K	–	1.45e-05	–	–	0.00013	0.00197	–	–	–	–
333.15 K	2.69e-06	2.19e-05	0.000772	1.12e-05	0.00015	0.00198	8.34e-06	0.000113	1.71e-06	0.00107
338.15 K	–	–	–	–	0.000167	–	–	–	–	–
343.15 K	–	–	0.00079	3.58e-05	–	–	1.15e-05	0.000294	2.49e-06	0.00166
348.15 K	–	–	–	5.44e-05	–	–	–	–	–	–
353.15 K	–	–	0.000791	–	–	–	1.69e-05	0.000812	3.87e-06	0.00193
363.15 K	–	–	–	–	–	–	2.6e-05	0.00241	6.11e-06	0.00198
368.15 K	–	–	–	–	–	–	–	0.00424	–	0.00201
